According to paper PMC7597410, “Targeting breast cancer metabolism with a novel inhibitor of mitochondrial ATP synthesis” (Oncotarget, 2020):

Target: T1, mitochondrial ATP synthase subunit alpha (α-F1-ATP synthase, ATP5A) (Homo sapiens, UniProt P25705)
T1 construct: gene ATP5F1A; purified recombinant human α-F1-ATP synthase (CusaBio)
Assay: DSF Tm increase with purified recombinant α subunit ([…]~[…] CADD522, no Kd); the EC50 is from CETSA in MDA-MB-231 lysate; immunocaptured ATP synthase also inhibited at […]~[…]
Format: binding

T1 sequence (P25705 44-553): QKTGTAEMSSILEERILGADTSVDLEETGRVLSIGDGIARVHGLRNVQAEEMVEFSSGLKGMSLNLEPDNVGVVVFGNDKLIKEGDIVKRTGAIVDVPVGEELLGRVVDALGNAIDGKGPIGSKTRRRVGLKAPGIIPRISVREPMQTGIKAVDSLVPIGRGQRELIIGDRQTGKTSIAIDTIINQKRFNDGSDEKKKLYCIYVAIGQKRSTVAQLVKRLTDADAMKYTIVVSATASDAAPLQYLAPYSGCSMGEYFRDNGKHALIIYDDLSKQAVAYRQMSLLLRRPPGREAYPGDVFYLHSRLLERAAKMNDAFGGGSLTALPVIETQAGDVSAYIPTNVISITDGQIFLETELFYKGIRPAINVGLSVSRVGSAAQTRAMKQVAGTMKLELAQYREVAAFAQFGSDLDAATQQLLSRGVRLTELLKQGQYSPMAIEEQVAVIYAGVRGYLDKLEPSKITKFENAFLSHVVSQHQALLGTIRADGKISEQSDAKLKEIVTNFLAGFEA

- EC50: < 0.14 µM
SMILES: O=C(O)C1C2C=CC(C2)C1C(=O)Nc1ccc(Cl)c(Cl)c1 (stereo not shown) [CADD522]
